In one assay the target is T1, MAOa (Homo sapiens, UniProt P21397).
T1 construct: commercial recombinant enzyme (Sigma)
T1 sequence (P21397 1-527): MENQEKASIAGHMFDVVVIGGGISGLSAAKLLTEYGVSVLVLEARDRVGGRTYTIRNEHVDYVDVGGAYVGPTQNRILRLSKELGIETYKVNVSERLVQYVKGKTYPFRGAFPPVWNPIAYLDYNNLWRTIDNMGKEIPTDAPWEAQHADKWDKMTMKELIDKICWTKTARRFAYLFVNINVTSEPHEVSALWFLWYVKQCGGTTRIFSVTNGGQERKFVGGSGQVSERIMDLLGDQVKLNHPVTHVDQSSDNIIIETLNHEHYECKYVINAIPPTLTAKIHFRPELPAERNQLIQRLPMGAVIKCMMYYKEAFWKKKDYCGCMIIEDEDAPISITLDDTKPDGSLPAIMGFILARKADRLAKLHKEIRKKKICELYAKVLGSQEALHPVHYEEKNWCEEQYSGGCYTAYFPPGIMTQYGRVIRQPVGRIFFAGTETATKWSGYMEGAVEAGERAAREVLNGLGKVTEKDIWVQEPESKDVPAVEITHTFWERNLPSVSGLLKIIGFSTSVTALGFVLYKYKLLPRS
In words: HPLC-MS of metabolites. The format is biochemical. Particulars: oxidised to the aldehyde.

In a further assay the target is T2, TbALDH3 (Trypanosoma brucei, UniProt Q583M9).
T2 construct: gene Tb06.5F5.780; A6-K490 seen in crystal
T2 sequence (Q583M9 1-543): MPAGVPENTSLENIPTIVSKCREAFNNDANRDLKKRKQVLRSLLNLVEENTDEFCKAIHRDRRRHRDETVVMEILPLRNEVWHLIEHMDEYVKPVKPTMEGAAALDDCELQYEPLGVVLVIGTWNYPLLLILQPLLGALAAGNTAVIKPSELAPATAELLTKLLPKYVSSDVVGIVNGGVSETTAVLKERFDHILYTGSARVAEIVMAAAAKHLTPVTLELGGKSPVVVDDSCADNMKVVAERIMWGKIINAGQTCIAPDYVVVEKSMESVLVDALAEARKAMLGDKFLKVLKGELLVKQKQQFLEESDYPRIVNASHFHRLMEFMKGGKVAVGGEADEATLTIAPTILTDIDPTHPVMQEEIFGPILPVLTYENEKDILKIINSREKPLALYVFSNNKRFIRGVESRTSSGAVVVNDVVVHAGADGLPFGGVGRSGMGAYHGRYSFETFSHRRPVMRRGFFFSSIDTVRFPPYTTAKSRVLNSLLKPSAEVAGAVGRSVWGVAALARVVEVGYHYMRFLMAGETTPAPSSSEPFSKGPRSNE
In words: HPLC-MS of metabolites, coupled with MAOa or FBS. The format is biochemical. Particulars: aldehyde made in situ from AN3057; oxidised to the carboxylate (AN2861).

In the case of `NCc1ccc(Oc2ccc3c(c2)COB3O)cc1` [AN3057, (4-(1-hydroxy-1,3-dihydrobenzo[c][1,2]oxaborol-5-yloxy)phenyl)methanaminium chloride], on MAOa, the HPLC-MS of metabolites entry is reported as “the methylamine group in the structure is first converted by MAOa into an aldehyde”. As for `O=Cc1ccc(Oc2ccc3c(c2)COB3O)cc1` [AN3057-aldehyde], the “HPLC-MS of metabolites, coupled with MAOa or FBS” value at TbALDH3 was “converted by MAOa into an aldehyde, and then is further metabolized into a carboxylic acid”.

These data come from paper PMC5823473, “Host-parasite co-metabolic activation of antitrypanosomal aminomethyl-benzoxaboroles” (PLoS Pathogens, 2018).
